Measured values: patent US9890185B2, “Urea derivatives useful as kinase inhibitors” (Respivert Limited, priority 2013, dated 2018)

Tests used:
[1] = molecular target: p38 MAPKα isoform (MAPK14) (Homo sapiens (Human), UniProt Q16539); experiment: p38 MAPKα enzyme inhibition (FRET, Z-LYTE, Method 2); type: biochemical
Description: (§1) The enzyme inhibitory activities of compounds disclosed herein are determined by FRET using synthetic peptides labelled with both donor and acceptor fluorophores (Z-LYTE, Invitrogen Ltd., Paisley, UK).
The following two assay variants can be used for determination of p38 MAPKα inhibition.
The inhibitory activities of test compounds against the p38 MAPKα isoform (MAPK14: Invitrogen), are evaluated indirectly by determining the level of activation/phosphorylation of the down-stream molecule, MAPKAP-K2. The p38 MAPKα protein (80 ng/mL, 2.5 μL) is mixed with the test compound (2.5 μL of either 4 μg/mL, 0.4 μg/mL, 0.04 μg/mL or 0.004 μg/mL) for 2 hr at RT. […] The mixture is incubated for 1 hr at RT. Development reagent (protease, 5 μL) is added for 1 hr prior to detection in a fluorescence microplate reader (Varioskan® Flash, ThermoFisher Scientific).
This method follows the same steps as Method 1 above, but utilises a higher concentration of the p38 MAPKα protein (2.5 μL of 200 ng/mL protein instead of 2.5 μL of 80 ng/mL protein) for mixing with the test compound.
(§2) In all cases, the site-specific protease cleaves non-phosphorylated peptide only and eliminates the FRET signal. Phosphorylation levels of each reaction are calculated using the ratio of coumarin emission (donor) over fluorescein emission (acceptor), for which high ratios indicate high phosphorylation and low ratios indicate low phosphorylation levels. The percentage inhibition of each reaction is calculated relative to non-inhibited control and the 50% inhibitory concentration (IC50 value) is then calculated from the concentration-response curve.

c-Src = c-Src (Homo sapiens (Human), UniProt P12931); experiment: c-Src enzyme inhibition (FRET, Z-LYTE); type: biochemical
c-Src, sequence (P12931 whole entry, looked up): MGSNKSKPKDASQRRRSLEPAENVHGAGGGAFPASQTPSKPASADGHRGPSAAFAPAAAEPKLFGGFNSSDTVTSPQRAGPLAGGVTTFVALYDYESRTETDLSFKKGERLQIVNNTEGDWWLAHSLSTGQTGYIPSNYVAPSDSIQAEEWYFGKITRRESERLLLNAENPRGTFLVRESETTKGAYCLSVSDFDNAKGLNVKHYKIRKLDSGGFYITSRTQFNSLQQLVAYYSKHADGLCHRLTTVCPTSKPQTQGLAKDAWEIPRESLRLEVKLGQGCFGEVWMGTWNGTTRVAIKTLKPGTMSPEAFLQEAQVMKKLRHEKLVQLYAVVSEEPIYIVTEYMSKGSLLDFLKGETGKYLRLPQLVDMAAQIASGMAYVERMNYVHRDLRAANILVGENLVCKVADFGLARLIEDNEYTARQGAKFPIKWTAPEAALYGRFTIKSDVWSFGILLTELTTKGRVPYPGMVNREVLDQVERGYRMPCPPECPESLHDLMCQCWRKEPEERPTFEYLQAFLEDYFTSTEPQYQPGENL
Description: as §1
(§3) The inhibitory activities of compounds of the invention against c-Src and Syk enzymes (Invitrogen), are evaluated in a similar fashion to that described hereinabove. The relevant enzyme (3000 ng/mL or 2000 ng/mL respectively, 2.5 μL) is incubated with the test compound (either 4 μg/mL, 0.4 μg/mL, 0.04 μg/mL, or 0.004 μg/mL, 2.5 μL each) for 2 hr at RT. The FRET peptides (8 μM, 2.5 μL), and appropriate ATP solutions (2.5 μL, 800 μM for c-Src, and 60 μM ATP for Syk) are then added to the enzymes/compound mixtures and incubated for 1 hr. Development reagent (protease, 5 μL) is added for 1 hr prior to detection in a fluorescence microplate reader (Varioskan® Flash, ThermoFisher Scientific).
as §2

Syk = Syk (Homo sapiens (Human), UniProt P43405); experiment: Syk enzyme inhibition (FRET, Z-LYTE); type: biochemical
Description: as §1, §3, §2

GSK 3α = GSK 3α (Homo sapiens (Human), UniProt P49840); experiment: GSK 3α enzyme inhibition (FRET, Z-LYTE, Method 2); type: biochemical; details: read-out: IC50 Values for Enzyme Inhibition, GSK3α
GSK 3α, sequence (P49840 whole entry): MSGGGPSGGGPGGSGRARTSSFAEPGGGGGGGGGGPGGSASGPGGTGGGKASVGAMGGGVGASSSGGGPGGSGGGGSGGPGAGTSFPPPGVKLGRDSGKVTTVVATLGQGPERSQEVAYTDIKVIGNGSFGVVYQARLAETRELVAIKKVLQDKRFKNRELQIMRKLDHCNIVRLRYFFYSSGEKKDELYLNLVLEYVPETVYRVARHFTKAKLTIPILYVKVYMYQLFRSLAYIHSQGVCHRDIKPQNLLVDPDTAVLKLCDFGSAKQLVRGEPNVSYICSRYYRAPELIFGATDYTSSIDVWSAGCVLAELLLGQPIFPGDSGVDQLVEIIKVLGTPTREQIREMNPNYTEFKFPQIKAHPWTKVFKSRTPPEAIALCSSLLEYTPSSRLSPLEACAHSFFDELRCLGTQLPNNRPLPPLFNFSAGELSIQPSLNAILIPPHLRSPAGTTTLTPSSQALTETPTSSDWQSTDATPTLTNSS
Method in brief: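 Recombinant human GSK3α was preincubated with compound (stocks 4, 0.4, 0.04 or 0.004 μg/mL) at RT, 2 hr for Method 1 and 105 min for Method 2. FRET peptide (8 μM stock) and ATP (40 μM stock) were added for 1 hr, then protease development for 1 hr. IC50 was taken from concentration–response curves.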

PBMCs [2] = experiment: LPS-induced IL-8 release in PBMC cells (assay b); type: cell-based, human; details: Homo sapiens, PBMC; LPS-stimulated PBMCs; read-out: IC50 Values for Inhibition of Cytokine Release, PBMCs IL-8
Method in brief: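 Human PBMCs from healthy donors, isolated by density gradient, were pretreated with compound for 2 h and then stimulated with 1 ng/mL LPS (E. coli 0111:B4) for 24 h at 37° C, 5% CO2. Supernatant IL-8 and TNFα were measured by sandwich ELISA, and IC50 was taken from the dose-response curve.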

PBMCs [3] = experiment: IL-2 release in CD3/CD28 stimulated PBMC cells (assay c); type: cell-based; details: Homo sapiens, read-out: IC50 Values for Inhibition of Cytokine Release, PBMCs IL-2
Description: (§4) PBMCs from healthy subjects are separated from whole blood using a density gradient (Lymphoprep, Axis-Shield Healthcare). Cells are added to a 96 well plate pre-coated with a mixture of CD3/CD28 monoclonal antibodies (0.3 μg/mL eBioscience and 3 μg/mL BD Pharmingen respectively). Compound at the desired concentration is then added to the wells and the plate left for 3 days under normal tissue culture conditions. Supernatants are harvested and IL-2 and IFN gamma release determined by Sandwich ELISA (Duo-set, R&D System). The IC50 is determined from the dose response curve.

PBMCs [4] = experiment: IFN gamma release in CD3/CD28 stimulated PBMC cells (assay c); type: cell-based; details: Homo sapiens, read-out: IC50 Values for Inhibition of Cytokine Release, PBMCs IFNγ
Description: as §4

d-U937 cells = experiment: Accumulation of β catenin in d-U937 cells (assay m); type: cell-based, human; details: percentage relative to Reference Compound at 1 μg/mL
Description: U937 cells, a human monocytic cell line, are differentiated into macrophage-type cells by incubation with PMA; (100 ng/mL) for between 48 to 72 hr. The cells are then incubated with either final concentrations of test compound or vehicle for 18 hr. The induction of β-catenin by the test compounds is stopped by replacing the media with 4% formaldehyde solution. Endogenous peroxide activity is neutralised by incubating with quenching buffer (100 μL, 0.1% sodium azide, 1% H2O2 in PBS with 0.05% Tween-20) for 20 min. The cells are washed with washing buffer (200 μL; PBS containing 0.05% Tween-20) and incubated with blocking solution (200 μL; 5% milk in PBS) for 1 hr, re-washed with washing buffer (200 μL) and then incubated overnight with anti-β-catenin antibody solution (50 μL) in 1% BSA/PBS (BD, Oxford, UK).
After washing with washing buffer (3×200 μL; PBS containing 0.05% Tween-20), cells are incubated with an HRP-conjugated secondary antibody solution (100 μL) in 1% BSA/PBS (Dako, Cambridge, UK) and the resultant signal is determined colourimetrically (OD: 450 nm with a reference wavelength of 655 nm) using TMB substrate (50 μL; R&D Systems, Abingdon, UK). This reaction is stopped by addition of 1N H2SO4 solution (50 μL). Cells are then washed with washing buffer and 2% crystal violet solution (50 μL) is applied for 30 min. After washing with washing buffer (3×200 μL), 1% SDS (100 μL) is added to each well and the plates are shaken lightly for 1 hr prior to measuring the absorbance at 595 nm (Varioskan® Flash, Thermo-Fisher Scientific).
The measured OD450-655 readings are corrected for cell number by dividing the OD450-655 by the OD595 readings.

PBMCs [5] = experiment: Cell mitosis assay in PBMCs (assay g); type: cell-based; details: Homo sapiens, PBMC, test compound 5 μg/mL
Description: Peripheral blood mononucleocytes (PBMCs) from healthy subjects are separated from whole blood (Quintiles, London, UK) using a density gradient (Histopaque®-1077, Sigma-Aldrich, Poole, UK). The PBMCs (3 million cells per sample) are subsequently treated with 2% PHA (phytohaemagglutinin, Sigma-Aldrich, Poole, UK) for 48 hr, followed by a 20 hr exposure to varying concentrations of test compounds. At 2 hr before collection, PBMCs are treated with demecolcine (0.1 μg/mL; Invitrogen, Paisley, UK) to arrest cells in metaphase. To observe mitotic cells, PBMCs are permeabilised and fixed by adding Intraprep (50 μL; Beckman Coulter, France), and stained with anti-phospho-histone 3 (0.26 ng/L; #9701; Cell Signalling, Danvers, Mass.) and propidium iodide (1 mg/mL; Sigma-Aldrich, Poole, UK) as previously described (Muehlbauer P. A. and Schuler M. J., Mutation Research, 2003, 537:117-130). Fluorescence is observed using an ATTUNE flow cytometer (Invitrogen, Paisley, UK), gating for lymphocytes. The percentage inhibition of mitosis is calculated for each treatment relative to vehicle (0.5% DMSO) treatment.

p38 MAPKα isoform (MAPK14), sequence (Q16539 whole entry, canonical isoform): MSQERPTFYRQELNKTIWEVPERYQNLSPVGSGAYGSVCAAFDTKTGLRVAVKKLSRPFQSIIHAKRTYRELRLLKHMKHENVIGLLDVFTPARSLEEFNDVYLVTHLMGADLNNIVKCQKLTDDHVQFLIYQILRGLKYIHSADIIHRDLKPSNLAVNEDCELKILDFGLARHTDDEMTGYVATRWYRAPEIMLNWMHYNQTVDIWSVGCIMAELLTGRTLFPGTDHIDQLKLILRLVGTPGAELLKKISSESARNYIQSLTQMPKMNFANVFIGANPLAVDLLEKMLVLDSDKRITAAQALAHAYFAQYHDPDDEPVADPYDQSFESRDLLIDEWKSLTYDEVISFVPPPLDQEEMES

## COc1c(NC(=O)Nc2ccc(Oc3ccnc(Nc4ccccc4)c3)c3ccccc23)cc(C(C)(C)C)cc1OCP(C)(C)=O [15(e), 1-(5-(tert-butyl)-3-((dimethylphosphoryl)methoxy)-2-methoxyphenyl)-3-(4-((2-(phenylamino)pyridin-4-yl)oxy)naphthalen-1-yl)urea]
[1]
  IC50: 360 nM
c-Src
  IC50: 120 nM
Syk
  IC50: 551 nM
GSK 3α
  IC50: 2890 nM
PBMCs [2]
  IC50: 4.7 nM
PBMCs [3]
  IC50: 25.6 nM
PBMCs [4]
  IC50: 60.4 nM
d-U937 cells; test compound 1 μg/mL
  % β-catenin induction: 2.0%
d-U937 cells; test compound 5 μg/mL
  % β-catenin induction: 20.5%
d-U937 cells; test compound 10 μg/mL
  % β-catenin induction: 32.5%

## COc1c(NC(=O)Nc2ccc(Oc3ccnc(Nc4cnccn4)n3)c3ccccc23)cc(C(C)(C)C)cc1P(C)(C)=O [15(q), 1-(5-(tert-butyl)-3-(dimethylphosphoryl)-2-methoxyphenyl)-3-(4-((2-(pyrazin-2-ylamino)pyrimidin-4-yl)oxy)naphthalen-1-yl)urea]
c-Src
  IC50: 211 nM
Syk
  IC50: > 1640 nM
GSK 3α
  IC50: 3480 nM
PBMCs [2]
  IC50: 6.2 nM
PBMCs [4]
  IC50: 1640 nM
PBMCs [5]
  inhibition at 5 µg/mL: 12.9%
d-U937 cells; test compound 1 μg/mL
  % β-catenin induction: 5.0%
d-U937 cells; test compound 5 μg/mL
  % β-catenin induction: 9.5%
d-U937 cells; test compound 10 μg/mL
  % β-catenin induction: 2.5%

## COc1cc(Nc2cc(Oc3ccc(NC(=O)Nc4cc(C(C)(C)C)cc(CC(N)=O)c4OC)c4ccccc34)ccn2)cc(S(N)(=O)=O)c1 [38(ai), 2-(5-(tert-Butyl)-2-methoxy-3-(3-(4-((2-((3-methoxy-5-sulfamoylphenyl)amino)pyridin-4-yl)oxy)naphthalen-1-yl)ureido)phenyl)acetamide]
GSK 3α
  IC50: 885 nM
PBMCs [2]
  IC50: 1.6 nM
PBMCs [3]
  IC50: 91.7 nM
PBMCs [4]
  IC50: 11.1 nM
PBMCs [5]
  inhibition at 5 µg/mL: 67.6%

## COc1cc(Nc2cc(Oc3ccc(NC(=O)Nc4cc(C(C)(C)C)cc(P(C)(C)=O)c4OC)c4ccccc34)ccn2)ccc1C(=O)NCCN1CCOCC1 [38(ao), 4-((4-((4-(3-(5-(tert-Butyl)-3-(dimethylphosphoryl)-2-methoxyphenyl)ureido)naphthalen-1-yl)oxy)pyridin-2-yl)amino)-2-methoxy-N-(2-morpholinoethyl)benzamide]
GSK 3α
  IC50: 3270 nM
PBMCs [2]
  IC50: 2.7 nM
PBMCs [3]
  IC50: 219 nM
PBMCs [4]
  IC50: 15.7 nM
PBMCs [5]
  inhibition at 5 µg/mL: 78%

## COc1c(CC(N)=O)cc(C(C)(C)C)cc1NC(=O)Nc1ccc(Oc2ccnc(Nc3cccc(OC(F)F)c3)c2)c2ccccc12 [38(s), 2-(5-(tert-Butyl)-3-(3-(4-((2-((3-(difluoromethoxy)phenyl)amino)pyridin-4-yl)oxy)naphthalen-1-yl)ureido)-2-methoxyphenyl)acetamide]
c-Src
  IC50: 363 nM
Syk
  IC50: > 1520 nM
GSK 3α
  IC50: > 15300 nM
PBMCs [2]
  IC50: 5.3 nM
PBMCs [3]
  IC50: 190 nM
PBMCs [4]
  IC50: 26.7 nM

## COc1cc(Nc2cc(Oc3ccc(NC(=O)Nc4cc(C(C)(C)C)cc(CP(C)(C)=O)c4OC)c4ccccc34)ccn2)cc(C(=O)NCCN2CCOCC2)c1 [38(v), 3-((4-((4-(3-(5-(tert-Butyl)-3-((dimethylphosphoryl)methyl)-2-methoxyphenyl)ureido)-naphthalen-1-yl)oxy)pyridin-2-yl)amino)-5-methoxy-N-(2-morpholinoethyl)benzamide]
GSK 3α
  IC50: 1150 nM
PBMCs [2]
  IC50: 1.7 nM
PBMCs [3]
  IC50: 84.5 nM
PBMCs [4]
  IC50: 8.1 nM

## COCCOCCOCCOc1cc(Nc2nccc(Oc3ccc(NC(=O)Nc4cc(C(C)(C)C)cc(P(C)(C)=O)c4OC)c4ccccc34)n2)cc(OC)c1 [Example 1, 1-(5-(tert-Butyl)-3-(dimethylphosphoryl)-2-methoxyphenyl)-3-(4-((2-((3-methoxy-5-(2-(2-(2-methoxyethoxy)ethoxy)ethoxy)phenyl)amino)pyrimidin-4-yl)oxy)naphthalen-1-yl)urea]
[1]
  IC50: 34 nM
c-Src
  IC50: 9 nM
Syk
  IC50: 30 nM
GSK 3α
  IC50: 330 nM
PBMCs [2]
  IC50: 1.1 nM
PBMCs [3]
  IC50: 61.2 nM
PBMCs [4]
  IC50: 3.8 nM

## COc1cc(Nc2nccc(Oc3ccc(NC(=O)Nc4cc(C(C)(C)C)cc(P(C)(C)=O)c4OC)c4ccccc34)n2)cc(OC)c1 [Example 18, 1-(5-(tert-Butyl)-3-(dimethylphosphoryl)-2-methoxyphenyl)-3-(4-((2-((3,5-dimethoxyphenyl)-amino)pyrimidin-4-yl)oxy)naphthalen-1-yl)urea]
[1]
  IC50: 218 nM
c-Src
  IC50: 15 nM
Syk
  IC50: 69 nM
GSK 3α
  IC50: 1310 nM
PBMCs [2]
  IC50: 2.1 nM
PBMCs [3]
  IC50: 19.4 nM
PBMCs [4]
  IC50: 8.2 nM
d-U937 cells; test compound 1 μg/mL
  % β-catenin induction: 6.5%
d-U937 cells; test compound 5 μg/mL
  % β-catenin induction: 35.5%
d-U937 cells; test compound 10 μg/mL
  % β-catenin induction: 39.0%

## COc1cc(Nc2cc(Oc3ccc(NC(=O)Nc4cc(C(C)(C)C)cc(S(C)(=O)=O)c4OC)c4ccccc34)ccn2)ccc1C(=O)O [Example 80, 4-((4-((4-(3-(5-(tert-Butyl)-2-methoxy-3-(methylsulfonyl)phenyl)ureido)naphthalen-1-yl)oxy)pyridin-2-yl)amino)-2-methoxybenzoic acid]
PBMCs [2]
  IC50: 4.5 nM
PBMCs [3]
  IC50: 415 nM
PBMCs [4]
  IC50: 6.6 nM
